Tested on: HMC3-MHCII^Luc cells
Experiment: RNAseq differential gene expression / GSEA in AAT-treated resting and IFNγ-activated microglia
Assay type: cell-based, human
Description: • A) Human microglial HMC3-MHCII^Luc cells were plated at day 0, presented IFNγ at day 1 until day 2 and measurement of the luciferase activity and cell viability were done at day 4. • B) AATs were applied from day 0 to day 4 on HMC3-MHCII^Luc cells. Activation was measured by the activity of MHCII-driven luciferase and represented as percentage of IFNγ control for all conditions. All conditions were performed in triplicates, error bars represent standard deviation. • C) Bulk RNA extraction was performed on the same HMC3-MHCII^Luc cultures. Quality control (QC) were applied to RNA before sequencing. QC of the sequencing was done prior to mapping on the human genome. Mapped reads were counted, and differential gene expression was measured between the conditions (see Table 1-10). (FIGS. 3A, 3B and 3C)
RNAseq data from plasma-derived and recombinant AATs were pooled, normalized and analyzed through Gene Set Enrichment Analysis (GSEA) (https://www.gsea-msigdb.org/gsea/index.jsp; Subramanian, A., et al. Proc. Natl. Acad. Sci. USA, 102 (43): 15545-15550, 2005.). […] Importantly, both the IFNγ and inflammatory responses were dampened by AAT. However, the downregulation of the inflammatory response genes in (C) was just under significance.
Tables of genes related to antigen presentation (Table 1), cytokine signaling (Table 2), interferon signaling (Table 3) and complement activation (Table 4). Inflammatory top gene (FC>2; p-value<0.05; left column), were defined by differential expression between untreated and IFNγ-treated cells (inflammation; middle column).
HMC3-MHCII^Luc and HMC3-MHCII^Luc; Ubi^AAT (endogenous AAT) cell lines were seeded into 96-well plates at a density of approximately 2500 cells/well. HMC3-MHCII^Luc cell line was plated and was added plasma-derived AAT and recombinant AATs (produced in CHO cells, AAT 1 and AAT 2) 3h later and at ranged concentration (1; 10 or 25 μM). 24h after, still in the presence of exogenous or endogenous AAT, microglial activation was induced with a 24h-long IFNγ presentation (10 ng/ml). IFNγ was then removed and both HMC3-MHCII^Luc and HMC3-MHCII^Luc; Ubi^AAT cells were cultured for 48h in exogenous or endogenous presence of AAT before cell cultures were beeing assessed for cell viability and activation (See FIGS. 3A, 3B, 3C and 4A,4B, 4C).
RNA samples from plasma-derived AAT and recombinant AAT Nr. 2 were checked for quality (2100 Bioanalyzer, Agilent) and libraries prepared with Truseq RNA Library Kit (Illumina, RS-122-2001). Libraries were sequenced (HiSeq 4000, Illumina) controlled for the quality of sequencing (FastQC), mapped on the human genome (STAR v.2.7.0f; UCSC hg38), reads were counted (HTSeq v0.9.1) and the differential expression analysis was performed with the R/Bioconductor package (edgeR 1.30.1.).

[1] = AAT (left block), GBS risk gene
[2] = AAT, resting microglia, AD risk gene
[3] = AAT, resting microglia, MCT*/PN risk gene
[4] = AAT, resting microglia, MS risk gene
[5] = AAT, resting microglia, PD risk gene
[6] = FC AAT, resting microglia, M2 gene

alpha1-antitrypsin (AAT) protein
CDC42 expression FC AAT [1]: −1.35
FOS expression FC AAT [1]: −2.31
GLRX5 expression FC AAT [1]: 1.12
GUK1 expression FC AAT [1]: 1.57
HAGH expression FC AAT [1]: 1.40
HMGB2 expression FC AAT [1]: −1.20
MARCKS expression FC AAT [1]: −2.06
PKN2 expression FC AAT [1]: −1.47
SENP6 expression FC AAT [1]: −1.47
SMCHD1 expression FC AAT [1]: −1.39
ZNF12 expression FC AAT [1]: −1.26
IFNγ and inflammatory responses (GSEA gene families) (AAT treatment in absence or presence of IFNγ, pooled plasma-derived and recombinant AAT RNAseq data): dampened
ABCA7 expression FC [2]: 1.75
APOE expression FC [2]: 1.74
BIN1 expression FC [2]: 1.33
CD2AP expression FC [2]: −1.39
CLU expression FC [2]: −1.30
PICALM expression FC [2]: −1.48
PSEN2 expression FC [2]: 1.45
TREM2 expression FC [2]: 2.22
ARHGEF10 expression FC [3]: 1.19
CCT5 expression FC [3]: −1.17
DNAJB2* expression FC [3]: 1.39
DST expression FC [3]: −1.35
DYNC1H1* expression FC [3]: −1.40
FIG4* expression FC [3]: −1.42
GAN* expression FC [3]: −1.21
GARS* expression FC [3]: −1.21
GDAP1* expression FC [3]: −1.54
GNB4* expression FC [3]: −1.56
HSPB1* expression FC [3]: 1.67
IFRD1 expression FC [3]: 1.23
IGHMBP2* expression FC [3]: 1.39
KIF1A expression FC [3]: 2.76
KIF1B* expression FC [3]: −1.21
LRSAM1* expression FC [3]: 1.36
MTMR2* expression FC [3]: −1.36
PLEKHG5* expression FC [3]: 1.49
SBF2 expression FC [3]: −1.20
SCN9A expression FC [3]: −1.50
SCN11A expression FC [3]: 4.49
SETX expression FC [3]: −1.23
SPTLC1 expression FC [3]: −1.23
TFG* expression FC [3]: −1.28
TRIM2* expression FC [3]: −1.39
TRPV4* expression FC [3]: 1.92
WNK1 expression FC [3]: −1.14
AGAP2 expression FC [4]: 1.30
AHI1 expression FC [4]: −1.46
CBLB expression FC [4]: −1.24
CD40 expression FC [4]: 1.17
CD58 expression FC [4]: −1.61
CDC37 expression FC [4]: 1.26
CYP24A1 expression FC [4]: 2.55
EXTL2 expression FC [4]: −1.76
HLA-A expression FC [4]: 1.48
HLA-DRB1 expression FC [4]: −1.47
METTL1 expression FC [4]: 1.22
MPV17L2 expression FC [4]: 1.31
PTGER4 expression FC [4]: −1.29
PTPRK expression FC [4]: −1.38
RPS6KB1 expression FC [4]: −1.23
SLC30A7 expression FC [4]: −1.77
ATP13A2 expression FC [5]: 1.42
DNAJC6 expression FC [5]: −1.14
DNAJC13 expression FC [5]: −1.37
GIGYF2 expression FC [5]: −1.16
LRP10 expression FC [5]: 1.29
LRRK2 expression FC [5]: −3.98
PLA2G6 expression FC [5]: 1.55
SYNJ1 expression FC [5]: −1.33
TMEM230 expression FC [5]: −1.42
VPS13C expression FC [5]: −1.41
VPS35 expression FC [5]: −1.42
ACAN expression FC [6]: 1.37
AP2A2 expression FC [6]: 1.26
APLP1 expression FC [6]: 1.41
APRT expression FC [6]: 1.16
BAIAP2 expression FC [6]: 1.45
C16orf45 expression FC [6]: 1.31
CHPF expression FC [6]: 1.80
COL1A1 expression FC [6]: 1.58
COL11A1 expression FC [6]: 1.14
DBN1 expression FC [6]: 1.42
ENG expression FC [6]: 1.29
EXTL1 expression FC [6]: 2.19
FEZ1 expression FC [6]: 1.45
FGD3 expression FC [6]: 1.76
FOXC1 expression FC [6]: 1.26
FZD2 expression FC [6]: 1.39
FZD7 expression FC [6]: 1.24
GADD45GIP1 expression FC [6]: 1.55
GREM1 expression FC [6]: 1.69
GUK1 expression FC [6]: 1.57
HSPG2 expression FC [6]: 1.58
IGFBP2 expression FC [6]: 1.63
ITGA11 expression FC [6]: 1.65
MARCH4 expression FC [6]: 1.28
MBOAT7 expression FC [6]: 1.44
METRN expression FC [6]: 2.23
MIF expression FC [6]: 1.83
MMP1 expression FC [6]: 2.51
MOSPD3 expression FC [6]: 1.51
MXRA8 expression FC [6]: 1.40
NID1 expression FC [6]: 1.16
NTN4 expression FC [6]: 1.25
PAPPA expression FC [6]: 1.24
PLEC expression FC [6]: 1.69
PLTP expression FC [6]: 1.28
PREX1 expression FC [6]: 1.25
PRSS36 expression FC [6]: 1.58
PTPRS expression FC [6]: 1.27
RAB3IL1 expression FC [6]: 1.55
RASA4B expression FC [6]: 1.46
RASAL1 expression FC [6]: 1.52
SART1 expression FC [6]: 1.44
SEMA3B expression FC [6]: 1.50
SERPINH1 expression FC [6]: 1.21
SLC22A5 expression FC [6]: 1.22
STC2 expression FC [6]: 1.42
TAGLN expression FC [6]: 1.37
TBCD expression FC [6]: 1.26
TEKT4P2 expression FC [6]: 2.46
TGFB1I1 expression FC [6]: 1.31
TNFRSF1B expression FC [6]: 1.46
TTC9 expression FC [6]: 1.65
ZIC2 expression FC [6]: 2.42
AHNAK2 expression FC (FC inflammation + AAT, M2 gene): 1.40
ANPEP expression FC (FC inflammation + AAT, M2 gene): 1.25
ARHGDIB expression FC (FC inflammation + AAT, M2 gene): 1.28
BAIAP2 expression FC (FC inflammation + AAT, M2 gene): 1.24
BGN expression FC (FC inflammation + AAT, M2 gene): 1.27
CHPF expression FC (FC inflammation + AAT, M2 gene): 1.58
CLIP3 expression FC (FC inflammation + AAT, M2 gene): 1.25
CLMP expression FC (FC inflammation + AAT, M2 gene): 1.22
COL11A1 expression FC (FC inflammation + AAT, M2 gene): 1.16
DBN1 expression FC (FC inflammation + AAT, M2 gene): 1.31
ENG expression FC (FC inflammation + AAT, M2 gene): 1.35
EXTL1 expression FC (FC inflammation + AAT, M2 gene): 1.78
FADS2 expression FC (FC inflammation + AAT, M2 gene): 1.20
FAT1 expression FC (FC inflammation + AAT, M2 gene): 1.34
FEZ1 expression FC (FC inflammation + AAT, M2 gene): 1.34
FGD3 expression FC (FC inflammation + AAT, M2 gene): 2.31
FZD2 expression FC (FC inflammation + AAT, M2 gene): 1.37
FZD7 expression FC (FC inflammation + AAT, M2 gene): 1.36
GADD45GIP1 expression FC (FC inflammation + AAT, M2 gene): 1.51
GATA6 expression FC (FC inflammation + AAT, M2 gene): 1.47
GREM1 expression FC (FC inflammation + AAT, M2 gene): 1.56
GUK1 expression FC (FC inflammation + AAT, M2 gene): 1.31
HCK expression FC (FC inflammation + AAT, M2 gene): 1.44
HLA-DRB5 expression FC (FC inflammation + AAT, M2 gene): 2.09
HSPG2 expression FC (FC inflammation + AAT, M2 gene): 1.41
